Data set [1] relates to L1210. The data set is described as follows: Growth inhibitory activity on mouse L1210 cell culture. It is filed as functional, cell-based.
Another data set concerns the target Thymidylate synthase (Mus musculus, UniProt P07607). As to the kind of experiment: Compound was tested for the inhibition of recombinant mouse thymidylate synthase, competitive with 5,10-methylenetetrahydrofolate as variable substrate.
Data set [2] concerns the target Thymidylate synthase (Mus musculus) (UniProt P07607). The data set is described as follows: Binding affinity towards thymidylate synthase (TS).
The test system of data set [3] is L1210. The data set is described as follows: Growth inhibitory activity on L1210 cell culture in the presence of 5.6 uM thymidine(dThd). To be noted: Mus musculus. The format is functional, cell-based.
For data set [4], the system named is L1210. As to the kind of experiment: Growth inhibitory activity on L1210 cell culture in the presence of 32 uM hypoxanthine (Hx). The format is functional, cell-based. To be noted: Mus musculus.
Substrate in data set [5]: O=C(O)CCC(NC(=O)c1ccc(NCc2ccc3ncnc(O)c3c2)cc1)C(=O)O
As to the kind of experiment: (§1) Kinetic characteristic of compound for mouse liver FPGS(in vitro).

Substrate in data set [6]: Nc1nc(O)c2cc(CNc3ccc(C(=O)NC(CCC(=O)O)C(=O)O)cc3)ccc2n1
Described as §1.

Substrate in data set [7]: O=C(O)CCC(NC(=O)c1ccc(NCc2ccc3nnnc(O)c3c2)cc1)C(=O)O

Results on 4 molecules are retold here after ChEMBL document CHEMBL1125481, “N-[4-[[(3,4-dihydro-4-oxo-1,2,3-benzotriazin-6-yl)methyl]amino]benzoyl]-L-glutamic acid, a novel A-ring analogue of 2-desamino-5,8-dideazafolic acid” (J Med Chem, 1992).

What is called IC50 is the midpoint of a concentration-inhibition curve. The Ki is a dissociation constant, usually derived from enzyme kinetics or from competition with a known ligand. As usually defined, the Km is the concentration of substrate that gives half-maximal velocity.

Chain of Thymidylate synthase (Mus musculus) (P07607 whole entry, looked up): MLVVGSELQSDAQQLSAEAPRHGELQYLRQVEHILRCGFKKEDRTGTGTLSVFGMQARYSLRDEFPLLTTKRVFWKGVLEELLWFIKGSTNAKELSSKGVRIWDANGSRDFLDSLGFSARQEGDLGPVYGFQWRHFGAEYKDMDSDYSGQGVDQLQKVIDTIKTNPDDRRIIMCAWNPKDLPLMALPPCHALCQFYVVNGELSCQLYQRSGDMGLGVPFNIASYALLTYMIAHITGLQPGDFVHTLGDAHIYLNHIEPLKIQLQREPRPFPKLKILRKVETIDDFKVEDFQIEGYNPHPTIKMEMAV
Chain of Thymidylate synthase (P07607 whole entry): as the sequence (P07607 whole entry, looked up) above

With `O=C(O)CCC(NC(=O)c1ccc(NCc2ccc3ncnc(O)c3c2)cc1)C(=O)O` (stereo not given), inhibition in the data set with L1210 [1] was half-maximal at 430 nM (IC50).
For the molecule `O=C(O)CCC(NC(=O)c1ccc(NCc2ccc3nnnc(O)c3c2)cc1)C(=O)O` (stereo not given), the Ki (on Thymidylate synthase; in data set [2]) was 2300 nM in each case. Moreover, the IC50 with L1210 [3] turned out to be 890 nM; in the data set on L1210 [1], 520 nM; with L1210 [4], 970 nM.
As to `Nc1nc(O)c2cc(CNc3ccc(C(=O)NC(CCC(=O)O)C(=O)O)cc3)ccc2n1` (stereo not given) [DIDEAZAFOLATE], the IC50 with L1210 [1] turned out to be 2700 nM.

B1: Folylpolyglutamate synthase, mitochondrial (Mus musculus), P48760 (protein)
chain: MSWARSRLCSTLSLAAVSARGATTEGAARRGMSAWPAPQEPGMEYQDAVRTLNTLQTNASYLEQVKRQRSDPQAQLEAMEMYLARSGLQVEDLNRLNIIHVTGTKGKGSTCAFTERILRNYGLKTGFFSSPHMVQVRERIRINGKPISPELFTKHFWCLYNQLEEFKDDSHVSMPSYFRFLTLMAFHVFLQEKVDLAVVEVGIGGAFDCTNIIRKPVVCGVSSLGIDHTSLLGDTVEKIAWQKGGIFKPGVPAFTVVQPEGPLAVLRDRAQQIGCPLYLCPPLEALEEVGLPLSLGLEGAHQRSNAALALQLAHCWLERQDHQDIQELKVSRPSIRWQLPLAPVFRPTPHMRRGLRDTVWPGRTQILQRGPLTWYLDGAHTTSSVQACVHWYRQSLERSKRTDGGSEVHILLFNSTGDRDSAALLKLLQPCQFDYAVFCPNVTEVSSIGNADQQNFTVTLDQVLLRCLQHQQHWNGLAEKQASSNLWSSCGPDPAGPGSLLLAPHPPQPTRTSSLVFSCISHALLWISQGRDPIFQPQSLPRNLLNHPTANSGASILREAAAIHVLVTGSLHLVGGVLKLLDPSMSQ
Regarding B1, the Km came out at 4.8 µM in data set [5], 6.4 µM in data set [6] and 28 µM in data set [7].
